Reference: the supplement of paper PMC5908809

Key:
[1] = tested on: normal NK cells expanded with K562-aAPC; experiment: percent inhibition of viability; higher = more inhibition; conditions: 72 h, IL-2 2.5 ng/mL
Protocol: (§1)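 Drug sensitivity and resistance testing on K562-aAPC-expanded normal NK cells: 5 concentrations (10-fold steps over a 10,000-fold range), 72 h at 37 °C, viability by CellTiter-Glo normalised to DMSO and benzethonium chloride controls; DSS from the fitted curve.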

DERL-7 (IL-2 2.5 ng/mL) [2] = experiment: as above; conditions: 72 h
IMC-1 (IL-2 20 ng/mL) [3] = experiment: as above; conditions: 72 h
KAI3 (IL-2 2.5 ng/mL) [4] = experiment: as above; conditions: 72 h
KHYG-1 (IL-2 2.5 ng/mL) [5] = experiment: as above; conditions: 72 h
NK-92 (IL-2 2.5 ng/mL) [6] = experiment: as above; conditions: 72 h
NK-YS (IL-2 2.5 ng/mL) [7] = experiment: as above; conditions: 72 h
NKL (IL-2 2.5 ng/mL) [8] = experiment: as above; conditions: 72 h
SNK-6 (IL-2 2.5 ng/mL) [9] = experiment: as above; conditions: 72 h
YT (IL-2 2.5 ng/mL) [10] = experiment: as above; conditions: 72 h
[11] = tested on: normal primary NK cells, pool 1 (3 donors) (IL-2 2.5 ng/mL); experiment: as above; conditions: 72 h
[12] = tested on: normal primary NK cells, pool 1 (3 donors), resting (IL-2 0 ng/mL); experiment: as above; conditions: 72 h
[13] = tested on: normal primary NK cells, pool 2 (3 donors) (IL-2 2.5 ng/mL); experiment: as above; conditions: 72 h
[14] = tested on: normal primary NK cells, pool 3 (3 donors) (IL-2 2.5 ng/mL); experiment: as above; conditions: 72 h
[15] = tested on: normal NK cells expanded with K562-aAPC; experiment: drug sensitivity score (DSS) (DSS units); higher = more sensitive; extreme values may be limits of the assay; conditions: 72 h; IL-2 2.5 ng/mL
Protocol: as §1

DERL-7 (IL-2 2.5 ng/mL) [16] = experiment: as above; conditions: 72 h
IMC-1 (IL-2 20 ng/mL) [17] = experiment: as above; conditions: 72 h
KAI3 (IL-2 2.5 ng/mL) [18] = experiment: as above; conditions: 72 h
KHYG-1 (IL-2 2.5 ng/mL) [19] = experiment: as above; conditions: 72 h
NK-92 (IL-2 2.5 ng/mL) [20] = experiment: as above; conditions: 72 h
NK-YS (IL-2 2.5 ng/mL) [21] = experiment: as above; conditions: 72 h
NKL (IL-2 2.5 ng/mL) [22] = experiment: as above; conditions: 72 h
SNK-6 (IL-2 2.5 ng/mL) [23] = experiment: as above; conditions: 72 h
YT (IL-2 2.5 ng/mL) [24] = experiment: as above; conditions: 72 h
[25] = tested on: normal primary NK cells, pool 1 (3 donors) (IL-2 2.5 ng/mL); experiment: as above; conditions: 72 h
[26] = tested on: normal primary NK cells, pool 1 (3 donors), resting (IL-2 0 ng/mL); experiment: as above; conditions: 72 h
[27] = tested on: normal primary NK cells, pool 2 (3 donors) (IL-2 2.5 ng/mL); experiment: as above; conditions: 72 h
[28] = tested on: normal primary NK cells, pool 3 (3 donors) (IL-2 2.5 ng/mL); experiment: as above; conditions: 72 h

CC(=O)Nc1ccc(C(=O)Nc2ccccc2N)cc1 [Tacedinaline] (max concentration tested 1000 nM)
percent inhibition of viability [%]
Conditions	0.1 nM	1 nM	10 nM	100 nM	1000 nM
DERL-7 (IL-2 2.5 ng/mL) [2]	-0.72	2.51	4.2	-1.26	-25
IMC-1 (IL-2 20 ng/mL) [3]	-3.66	-4.64	-1.29	1.46	17.6
KAI3 (IL-2 2.5 ng/mL) [4]	-0.2	1.1	-0.46	-0.59	35.3
KHYG-1 (IL-2 2.5 ng/mL) [5]	-0.97	-4.06	-3.24	4.27	16.5
NK-92 (IL-2 2.5 ng/mL) [6]	-18.8	2.67	-7.86	1.73	27.5
NK-YS (IL-2 2.5 ng/mL) [7]	-0.71	-3.09	-0.76	2.62	20.6
NKL (IL-2 2.5 ng/mL) [8]	-13.2	-9.56	-8.35	10.4	13.4
SNK-6 (IL-2 2.5 ng/mL) [9]	1.48	-10.9	-5.83	1.17	46.3
YT (IL-2 2.5 ng/mL) [10]	-4.71	-3.94	-0.65	4.76	25.3
[1]	-1.06	-4	-3.33	3.27	14
[11]	-1.61	16.8	8.47	8.43	13
[12]	-5.67	17.3	11.8	17	7.91
[13]	-2.79	13	9.29	6.96	7.45
[14]	-4.4	14.9	12.8	-1.16	-0.28

Conditions	drug sensitivity score
DERL-7 (IL-2 2.5 ng/mL) [16]	0
IMC-1 (IL-2 20 ng/mL) [17]	0.58
KAI3 (IL-2 2.5 ng/mL) [18]	1.62
KHYG-1 (IL-2 2.5 ng/mL) [19]	0.78
NK-92 (IL-2 2.5 ng/mL) [20]	1.36
NK-YS (IL-2 2.5 ng/mL) [21]	1
NKL (IL-2 2.5 ng/mL) [22]	0.67
SNK-6 (IL-2 2.5 ng/mL) [23]	2.54
YT (IL-2 2.5 ng/mL) [24]	1.69
[15]	0.42
[25]	0.6
[26]	5.06
[27]	0
[28]	0

CC[C@H](CO)Nc1nc(NCc2ccccc2)c2ncn(C(C)C)c2n1 [Seliciclib] (max concentration tested 10000 nM)
percent inhibition of viability [%]
Conditions	1 nM	10 nM	100 nM	1000 nM	10000 nM
DERL-7 (IL-2 2.5 ng/mL) [2]	-1.96	7.05	6.82	0.8	33.1
IMC-1 (IL-2 20 ng/mL) [3]	-6.54	-8.7	-1.13	2.41	13.2
KAI3 (IL-2 2.5 ng/mL) [4]	-1.01	-9.53	-1.56	6.38	67.1
KHYG-1 (IL-2 2.5 ng/mL) [5]	4.31	-8.69	-4.34	1.22	18.6
NK-92 (IL-2 2.5 ng/mL) [6]	-2.72	-1.58	-0.03	23.2	39.9
NK-YS (IL-2 2.5 ng/mL) [7]	8.26	-2	-1.62	7.11	38.7
NKL (IL-2 2.5 ng/mL) [8]	-8.83	-15.7	-16.8	10.3	41.6
SNK-6 (IL-2 2.5 ng/mL) [9]	-14.8	-13.5	-3.42	-23.2	23.9
YT (IL-2 2.5 ng/mL) [10]	2.72	-5.9	-1.61	9.31	53.2
[1]	-5.19	-1.17	-5.63	3.89	27.1
[11]	-1.6	-3.91	11.5	8.66	32.8
[12]	-1.46	-6.05	15.1	7.69	9.97
[13]	-12.7	-4.83	5.97	1.18	33.5
[14]	0.36	1.61	11.3	-0.47	17.9

Conditions	drug sensitivity score
DERL-7 (IL-2 2.5 ng/mL) [16]	1.62
IMC-1 (IL-2 20 ng/mL) [17]	0.28
KAI3 (IL-2 2.5 ng/mL) [18]	4.72
KHYG-1 (IL-2 2.5 ng/mL) [19]	0.62
NK-92 (IL-2 2.5 ng/mL) [20]	4.81
NK-YS (IL-2 2.5 ng/mL) [21]	3.07
NKL (IL-2 2.5 ng/mL) [22]	3.69
SNK-6 (IL-2 2.5 ng/mL) [23]	0.43
YT (IL-2 2.5 ng/mL) [24]	4.39
[15]	1.71
[25]	2.2
[26]	2.43
[27]	1.7
[28]	0.41
